The results in this text go back to patent US7141590B2, “Pharmaceutical uses and synthesis of nicotinanilide-N-oxides” (UCB SA, priority 2000, dated 2006).

Assay [1] deals with T1, IL-8 type β receptor (IL-8Rβ) (Homo sapiens, UniProt P25025).
T1 construct: purchased BioSignal, Montreal, Canada; host or cells: Sf9 cells
T1 sequence (P25025 1-360): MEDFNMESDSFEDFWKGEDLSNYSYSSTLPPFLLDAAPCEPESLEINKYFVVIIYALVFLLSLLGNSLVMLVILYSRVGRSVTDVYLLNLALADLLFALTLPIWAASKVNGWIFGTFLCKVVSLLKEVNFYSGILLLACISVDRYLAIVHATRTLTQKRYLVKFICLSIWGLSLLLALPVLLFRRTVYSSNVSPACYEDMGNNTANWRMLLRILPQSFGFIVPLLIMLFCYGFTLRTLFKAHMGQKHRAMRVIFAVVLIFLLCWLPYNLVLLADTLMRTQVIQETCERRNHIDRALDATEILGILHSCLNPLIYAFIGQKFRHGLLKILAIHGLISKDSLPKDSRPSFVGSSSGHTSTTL
Nature of the assay: [125I] IL-8 binding assay (WGA-SPA beads, IL-8Rβ membranes). The settings on record: 20 uM compound; [125I] IL-8, IL-8Rβ membranes. How it is done:
IL-8 (human recombinant) was obtained from NEN Life Science Products, Inc., Boston, Mass., with specific activity of 2200 Ci/mmol. Recombinant human IL-8 was obtained from R&D Systems, Minneapolis, Minn. IL-8 type β receptor membranes were prepared from […] co-expressed with Gαi3β1γ2 proteins by BioSignal™, Montreal, Canada. Wheat Germ Agglutinin Scintillation Proximity Assay Beads were obtained from Amersham Pharmacia Biotech, Piscataway, N.J. All assays were performed in a 96-well, solvent resistant, white PicoPlate obtained from Packard Instruments. […] The assay was initiated by the addition of WGA-SPA beads in 25 mM Hepes (pH 7.4) containing 2 mM CaCl2 and 1 mM MgCl2. After 4–6 hours of gentle agitation at room temperature, the plate was counted on the Packard TopCount liquid scintillation counter.

In assay [2] the test system is polymorphonuclear neutrophils (PMNs). As to the kind of experiment: GRO-α driven chemotaxis assay with PMNs (ChemoTx plate). It is filed as cell-based. The conditions noted are these: 20 μM compound; 50 nM GRO-α, human PMNs. Here is the method:
Peripheral blood from healthy human volunteers was collected into heparin, diluted in an equal volume of PBS, layered over Ficoll-Paque Plus (Pharmacia Biotech, Uppsala, Sweden), and spun at 400×g for 30 min. The PMN rich fraction was removed and residual erythrocytes were lysed with hypotonic saline. The polymorphonuclear neutrophils (PMNs) were washed once with assay buffer (Dulbecco's PBS containing divalent cations and 0.1% endotoxin-free BSA), and resuspended at 1E7 cells/mL in the same buffer. PMNs were loaded with 5 μM calcein AM (Molecular Probes, Eugene, Oreg.), washed twice and resuspended in assay buffer.
Growth Regulatory Oncogene a (GRO-α) driven chemotaxis assays were performed according to the following protocol. […] Test compounds were dissolved in DMSO (100%) at 20 mM and diluted in assay buffer to the desired concentrations; final DMSO concentration was 0.2%. Neutrophil migration proceeded for 40 min at 37° C. in a humidified incubator with 5% CO2. After removing nonmigrated cells from the top of the plate, migrated cells were quantified by reading fluorescence on a Wallac Victor.
The ratio of the positive to negative controls represents the chemotactic index of the cells. The results from this assay are reported in Tables 3–5, under the column headings IL-8 and GRO-α, and under the sub-column headings ChTx (for chemotaxis).

Turning to `CN(C)c1ccc(C(=O)Nc2ccc(F)cc2)c[n+]1[O-]`, the “IL-8 Binding @ 20 uM, %” value in assay [1] is on record as “* (“*” for % values of less than or equal to 40)”.
As to `O=C(Nc1ccc(F)cc1)c1ccc(NCc2ccccc2)[n+]([O-])c1`, the “IL-8 Binding @ 20 uM, %” value in assay [1] is “* (“*” for % values of less than or equal to 40)”. The “GRO-α ChTx @ 20 μM, %” value in assay [2] was “* (“*” for % values of less than or equal to 40)”.
As to `O=C(Nc1ccc(F)cc1)c1ccc(Nc2ccccc2)[n+]([O-])c1`, in assay [1], the “IL-8 Binding @ 20 uM, %” value is “** (“**” for % values greater than 40)”. Further, the “GRO-α ChTx @ 20 μM, %” value in assay [2] is recorded as “* (“*” for % values of less than or equal to 40)”.
The matching figures for `CNc1ccc(C(=O)Nc2ccc(F)cc2)c[n+]1[O-]`: “** (“**” for % values greater than 40)” and “** (“**” for % values greater than 40)”.
The matching figures for `O=C(Nc1ccc(F)cc1)c1ccc(-n2ccnc2)[n+]([O-])c1`: “* (“*” for % values of less than or equal to 40)” and “* (“*” for % values of less than or equal to 40)”.
The matching figures for `O=C(Nc1ccc(F)cc1)c1ccc(NCCO)[n+]([O-])c1`: “* (“*” for % values of less than or equal to 40)” and “** (“**” for % values greater than 40)”.
Regarding `CCCCCNc1ccc(C(=O)Nc2ccc(F)cc2)c[n+]1[O-]`, the “IL-8 Binding @ 20 uM, %” value in assay [1] is listed as “* (“*” for % values of less than or equal to 40)”. Moreover, the “GRO-α ChTx @ 20 μM, %” value in assay [2] is “** (“**” for % values greater than 40)”.
For the compound `O=C(Nc1ccc(F)cc1)c1ccc(N2CCCC2)[n+]([O-])c1`, the “IL-8 Binding @ 20 uM, %” value in assay [1] is recorded as “* (“*” for % values of less than or equal to 40)”. Besides, the “GRO-α ChTx @ 20 μM, %” value in assay [2] is recorded as “* (“*” for % values of less than or equal to 40)”.
Take `Nc1ccc(C(=O)Nc2ccc(F)cc2)c[n+]1[O-]`: in assay [1], the “IL-8 Binding @ 20 uM, %” value was “* (“*” for % values of less than or equal to 40)”. The “GRO-α ChTx @ 20 μM, %” value in assay [2] is given as “* (“*” for % values of less than or equal to 40)”.
`COc1ccc(C(=O)Nc2ccc(F)cc2)c[n+]1[O-]`: in assay [1], the “IL-8 Binding @ 20 uM, %” value is recorded as “* (“*” for % values of less than or equal to 40)”. Besides, the “GRO-α ChTx @ 20 μM, %” value in assay [2] is reported as “** (“**” for % values greater than 40)”.
The matching figures for `CSc1ccc(C(=O)Nc2ccc(F)cc2)c[n+]1[O-]`: “** (“**” for % values greater than 40)” and “** (“**” for % values greater than 40)”.
The matching figures for `CCSc1ccc(C(=O)Nc2ccc(F)cc2)c[n+]1[O-]`: “* (“*” for % values of less than or equal to 40)” and “* (“*” for % values of less than or equal to 40)”.
For `CC(C)S(=O)(=O)c1ccc(C(=O)Nc2ccc(F)cc2)c[n+]1[O-]`, in assay [1], the “IL-8 Binding @ 20 uM, %” value is reported as “** (“**” for % values greater than 40)”. Further, the “GRO-α ChTx @ 20 μM, %” value in assay [2] was “** (“**” for % values greater than 40)”.
As for `O=C(O)c1cccc(S(=O)(=O)c2ccc(C(=O)Nc3ccc(F)cc3)c[n+]2[O-])c1`, the “IL-8 Binding @ 20 uM, %” value in assay [1] is “** (“**” for % values greater than 40)”. Further, in assay [2], the “GRO-α ChTx @ 20 μM, %” value is recorded as “* (“*” for % values of less than or equal to 40)”.
For `O=C(O)CCS(=O)(=O)c1ccc(C(=O)Nc2ccc(F)cc2)c[n+]1[O-]` the same measures were “** (“**” for % values greater than 40)” and “* (“*” for % values of less than or equal to 40)”.
The matching figures for `O=C(Nc1ccc(F)cc1)c1ccc(S(=O)(=O)c2ccc(F)cc2)[n+]([O-])c1`: “** (“**” for % values greater than 40)” and “** (“**” for % values greater than 40)”.
The matching figures for `Cc1cccc(S(=O)(=O)c2ccc(C(=O)Nc3ccc(F)cc3)c[n+]2[O-])c1`: “* (“*” for % values of less than or equal to 40)” and “** (“**” for % values greater than 40)”.
`Cc1ccc(C(=O)Nc2ccc(F)cc2)c[n+]1[O-]`: in assay [1], the “IL-8 Binding @ 20 uM, %” value is listed as “*(2) (“*” for % values of less than or equal to 40)”. Further, the “GRO-α ChTx @ 20 μM, %” value in assay [2] is “* (“*” for % values of less than or equal to 40)”.
For `O=C(Nc1cccc(Br)c1)c1ccc(Cl)[n+]([O-])c1` the same measures were “* (“*” for % values of less than or equal to 40)” and “** (“**” for % values greater than 40)”.
Take `O=C(Nc1ccc(F)c(C(F)(F)F)c1)c1ccc(Cl)[n+]([O-])c1`: the “IL-8 Binding @ 20 uM, %” value in assay [1] is recorded as “* (“*” for % values of less than or equal to 40)”. The “GRO-α ChTx @ 20 μM, %” value in assay [2] is “** (“**” for % values greater than 40)”.
The matching figures for `O=C(Nc1cccc(I)c1)c1ccc(Cl)[n+]([O-])c1`: “* (“*” for % values of less than or equal to 40)” and “** (“**” for % values greater than 40)”.
In the case of `CC(C)(C)OC(=O)c1cccc(NC(=O)c2ccc(Cl)[n+]([O-])c2)c1`, the “GRO-α ChTx @ 20 μM, %” value in assay [2] is listed as “** (“**” for % values greater than 40)”.
Same read-out and setting: as for `O=C(O)c1cccc(NC(=O)c2ccc(Cl)[n+]([O-])c2)c1`, the entry is “* (“*” for % values of less than or equal to 40)”.
Regarding `COc1ccc(C(=O)O)cc1NC(=O)c1ccc(Cl)[n+]([O-])c1`, in assay [2], the “GRO-α ChTx @ 20 μM, %” value is on record as “** (“**” for % values greater than 40)”.
The same measure, in the same setting: as for `O=C(Nc1cc(F)c(F)c(C(=O)O)c1F)c1ccc(Cl)[n+]([O-])c1`, the entry is “* (“*” for % values of less than or equal to 40)”.
Same read-out and setting: as for `O=C(Nc1ccc(O)c(C(=O)O)c1)c1ccc(Cl)[n+]([O-])c1`, the entry is “* (“*” for % values of less than or equal to 40)”.
On the same count and under the same terms, as for `O=C(Nc1ccc(F)c(F)c1C(=O)O)c1ccc(Cl)[n+]([O-])c1`, the entry is “** (“**” for % values greater than 40)”; as for `CCCCc1ccc(NC(=O)c2ccc(Cl)[n+]([O-])c2)cc1`, “** (“**” for % values greater than 40)”; as for `COC(=O)c1ccc(NC(=O)c2ccc(Cl)[n+]([O-])c2)cc1`, “** (“**” for % values greater than 40)”.
Turning to `O=C(Nc1cccc(F)c1F)c1ccc(Cl)[n+]([O-])c1`, in assay [2], the “GRO-α ChTx @ 20 μM, %” value is recorded as “** (“**” for % values greater than 40)”.
As to `CSc1ccccc1NC(=O)c1ccc(Cl)[n+]([O-])c1`, in assay [2], the “GRO-α ChTx @ 20 μM, %” value is reported as “** (“**” for % values greater than 40)”.
The same measure, in the same setting: under `CSc1ccc(NC(=O)c2ccc(Cl)[n+]([O-])c2)cc1` stands “** (“**” for % values greater than 40)”; under `N#Cc1cccc(NC(=O)c2ccc(Cl)[n+]([O-])c2)c1`, “** (“**” for % values greater than 40)”; under `COc1cc(NC(=O)c2ccc(Cl)[n+]([O-])c2)cc(OC)c1OC`, “* (“*” for % values of less than or equal to 40)”.
Still for that read-out and setting: as for `O=C(Nc1ccc(F)cc1)c1ccc(Cl)[n+]([O-])c1Cl`, the entry is “** (“**” for % values greater than 40)”; as for `Cc1ccc(C(=O)Nc2ccc(F)cc2)c(Cl)[n+]1[O-]`, “* (“*” for % values of less than or equal to 40)”; as for `O=C(Nc1ccc(F)cc1)c1ccc(Br)[n+]([O-])c1` [Br, 6-BROMO-N-(4-FLUORO-PHENYL)-1-OXY-NICOTINAMIDE], “** (“**” for % values greater than 40)”.
With `O=C(Nc1ccc(F)cc1)c1cc(Cl)c(Cl)[n+]([O-])c1` [drawing 126], the “GRO-α ChTx @ 20 μM, %” value in assay [2] was “** (“**” for % values greater than 40)”.
